Consider 26 compounds from patent US20240174679A1, “HETEROAROYL AMIDES AS LRRK2 INHIBITORS, PHARMACEUTICAL COMPOSITIONS, AND USES THEREOF” (MERCK SHARP & DOHME LLC, priority 2021, published 2024).

This test addresses GST tagged truncated human mutant G2019S LRRK2 (Homo sapiens (Human), UniProt Q5S007, G2019S). Description: LRRK2 Km ATP LanthaScreen Assay. The note with it: 134 μM ATP (Km ATP), LRRKtide substrate, negative log of mean IC50 (molar). It is filed as biochemical. The method, then: Unless otherwise noted, all reactions are magnetically stirred. Unless otherwise noted, when diethyl ether is used in the experiments described below, it is Fisher ACS certified material and is stabilized with BHT. Unless otherwise noted, “concentrated” and/or “solvent removed under reduced pressure” means evaporating the solvent from a solution or mixture using a rotary evaporator or vacuum pump. Unless otherwise noted, flash chromatography is carried out on a Teledyne Isco (Lincoln, NE), Analogix (Burlington, WI), or Biotage (Stockholm, SWE) automated chromatography system using a commercially available cartridge as the column. Columns may be purchased from Teledyne Isco, Analogix, Biotage, Varian (Palo Alto, CA), or Supelco (Bellefonte, PA) and are usually filled with silica gel as the stationary phase. Reversed phase preparative HPLC conditions, where used, can be found at the end of each experimental section. Aqueous solutions were concentrated on a Genevac (Ipswich, ENG) or by freeze-drying/lyophilization. Unless otherwise noted, all LRRK2 pIC50 data presented in tables refers to the LRRK2 G2019S Km ATP LanthaScreen™ assay (Life Technologies Corp., Carlsbad, CA) that is described in the Biological Assay section.
Biological Assay: LRRK2 Km ATP LanthaScreen™ Assay
Compound potency against LRRK2 kinase activity was determined using LanthaScreen™ technology from Life Technologies Corporation (Carlsbad, CA) using a GST20 tagged truncated human mutant G2019S LRRK2 in the presence of the fluorescein-labeled peptide substrate LRRKtide® (LRRK2 phosphorylated ezrin/radixin/moesin (ERM)), also from Life Technologies. The data presented for the Km ATP LanthaScreen™ Assay represents mean IC50 values based on several test results and may have reasonable deviations depending on the specific conditions and reagents used. Km is the Michaelis constant of an enzyme and is defined as the concentration of native substrate (ATP for a kinase) which permits the enzyme to achieve half Vmax (Vmax=rate of reaction when the enzyme is saturated with substrate). IC50 (half-maximal inhibitory concentration) represents the concentration of inhibitor required to inhibit LRRK2 kinase activity by 50%. Assays were performed in the presence of 134 μM ATP (Km ATP). Upon completion, the assay was stopped, and phosphorylated substrate detected with a terbium (Tb)-labeled anti-pERM antibody (cat. no. PV4898). The compound dose response was prepared by diluting a 10 mM stock of compound to a maximum concentration of 9.99 μM in 100% DMSO, followed by custom fold serial dilution in DMSO nine times. 20 nL of each dilution was spotted via a Labcyte Echo onto a 384-well black-sided plate (Corning 3575) followed by 15 μL of a 1.25 nM enzyme solution in 1× assay buffer (50 mM Tris pH 8.5, 10 mM MgCl2, 0.01% Brij-35, 1 mM EGTA, 2 mM dithiothreitol, 0.05 mM sodium orthovanadate). Following a 15-min incubation period at rt, the kinase reaction was started with the addition of 5 μL of 400 nM fluorescein-labeled LRRKtide® (LRRK2 phosphorylated ezrin/radixin/moesin (ERM)) peptide substrate and 134 μM ATP solution in 1× assay buffer. The reaction was allowed to progress at ambient temperature for 90 min. The reaction was then stopped by the addition of 20 μL of TR-FRET Dilution Buffer (Life Technologies, Carlsbad, CA) containing 2 nM Tb-labeled anti-phospho LRRKtide® (LRRK2 phosphorylated ezrin/radixin/moesin (ERM)) antibody and 10 mM EDTA (Life Technologies, Carlsbad, CA). After an incubation period of 1 h at rt, the plate was read on an EnVision® multimode plate reader (Perkin Elmer, Waltham, MA) with an excitation wavelength of 337 nm (Laser) and a reading emission at both 520 and 495 nm. Compound IC50 values were interpolated from nonlinear regression best-fits of the log of the final compound concentration, plotted as a function of the 520/495-nm emission ratio using activity base “Abase”). Abase uses a 4 parameter (4P) logistic fit based on the Levenberg-Marquardt algorithm. […]
(In general: Time-resolved FRET reads energy transfer from a long-lived donor to a nearby acceptor.)

Sequence of GST tagged truncated human mutant G2019S LRRK2 (Q5S007 970-2527 G2019S): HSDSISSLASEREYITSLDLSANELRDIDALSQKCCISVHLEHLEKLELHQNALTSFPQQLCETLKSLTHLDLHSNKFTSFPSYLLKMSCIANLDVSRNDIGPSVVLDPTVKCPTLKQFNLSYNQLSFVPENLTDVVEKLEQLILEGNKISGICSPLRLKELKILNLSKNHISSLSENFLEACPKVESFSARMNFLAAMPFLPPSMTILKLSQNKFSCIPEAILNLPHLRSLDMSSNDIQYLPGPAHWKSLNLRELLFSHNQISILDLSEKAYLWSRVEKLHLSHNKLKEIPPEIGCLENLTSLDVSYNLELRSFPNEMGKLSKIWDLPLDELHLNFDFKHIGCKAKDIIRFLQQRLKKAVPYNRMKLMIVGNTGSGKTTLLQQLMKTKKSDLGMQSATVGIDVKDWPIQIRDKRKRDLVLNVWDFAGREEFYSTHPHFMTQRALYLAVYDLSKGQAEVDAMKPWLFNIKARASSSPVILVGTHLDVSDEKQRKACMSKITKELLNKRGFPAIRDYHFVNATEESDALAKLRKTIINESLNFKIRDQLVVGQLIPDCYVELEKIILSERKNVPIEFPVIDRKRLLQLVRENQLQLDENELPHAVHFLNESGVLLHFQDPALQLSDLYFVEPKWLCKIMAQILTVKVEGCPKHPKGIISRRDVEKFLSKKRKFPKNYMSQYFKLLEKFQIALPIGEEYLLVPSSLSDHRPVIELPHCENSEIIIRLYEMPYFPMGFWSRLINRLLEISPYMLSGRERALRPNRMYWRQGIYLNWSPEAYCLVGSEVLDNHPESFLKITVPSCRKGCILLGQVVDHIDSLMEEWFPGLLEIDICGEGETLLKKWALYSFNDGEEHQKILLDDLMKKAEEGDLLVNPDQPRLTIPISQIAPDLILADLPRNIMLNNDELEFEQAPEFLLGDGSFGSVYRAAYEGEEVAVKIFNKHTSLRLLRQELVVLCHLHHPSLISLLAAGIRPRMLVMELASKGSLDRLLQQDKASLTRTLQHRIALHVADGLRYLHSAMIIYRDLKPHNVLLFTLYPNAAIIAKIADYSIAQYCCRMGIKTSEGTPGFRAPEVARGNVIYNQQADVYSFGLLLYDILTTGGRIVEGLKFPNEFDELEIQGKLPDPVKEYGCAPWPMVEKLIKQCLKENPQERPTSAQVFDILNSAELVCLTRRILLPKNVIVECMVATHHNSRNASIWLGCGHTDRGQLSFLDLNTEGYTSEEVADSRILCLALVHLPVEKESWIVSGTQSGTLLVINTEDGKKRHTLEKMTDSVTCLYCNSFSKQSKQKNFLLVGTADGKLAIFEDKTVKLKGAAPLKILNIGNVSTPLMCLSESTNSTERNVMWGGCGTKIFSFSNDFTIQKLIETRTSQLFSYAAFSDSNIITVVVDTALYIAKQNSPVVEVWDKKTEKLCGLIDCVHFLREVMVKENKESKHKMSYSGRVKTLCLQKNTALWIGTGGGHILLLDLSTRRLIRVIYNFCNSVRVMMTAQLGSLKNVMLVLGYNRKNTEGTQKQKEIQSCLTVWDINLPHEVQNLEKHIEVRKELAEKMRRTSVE

For the compound `O=C(Nc1cnn(-c2ccncc2)c1)c1csc(-c2cn[nH]c2)n1` [Example 1-8, 2-(1H-pyrazol-4-yl)-N-(1-pyridin-4-yl-1H-pyrazol-4-yl)-1,3-thiazole-4-carboxamide], the “LRRK2 pIC50” value was 8.07.
As for `Cn1cc(NC(=O)c2csc(-c3cn[nH]c3)n2)c(-c2ccncc2)n1` [Example 1-9, N-(1-methyl-3-pyridin-4-yl-1H-pyrazol-4-yl)-2-(1H-pyrazol-4-yl)-1,3-thiazole-4-carboxamide], the “LRRK2 pIC50” value came to 7.09.
To `CCn1cc(NC(=O)c2csc(-c3cn[nH]c3)n2)c(C#N)n1` [Example 1-10, N-(3-cyano-1-ethyl-1H-pyrazol-4-yl)-2-(1H-pyrazol-4-yl)-1,3-thiazole-4-carboxamide] belongs 7.30; to `Cn1cc(NC(=O)c2csc(-c3cn[nH]c3)n2)c(-c2ccc(F)cc2)n1` [Example 1-11, N-[3-(4-fluorophenyl)-1-methy1-1H-pyrazol-4-yl]-2-(1H-pyrazol-4-yl)-1,3-thiazole-4-carboxamide], 7.90.
On to `CCn1cc(NC(=O)c2csc(-c3cn[nH]c3)n2)c(-c2nnc3n2CCCC3)n1` [Example 1-12, N-[1-ethyl-3-(5,6,7,8-tetrahydro[1,2,4]triazolo[4,3-a]pyridin-3-yl)-1H-pyrazol-4-yl]-2-(1H-pyrazol-4-yl)-1,3-thiazole-4-carboxamide], for which the “LRRK2 pIC50” value was 7.53.
Take `Cn1cc(NC(=O)c2csc(-c3cn[nH]c3)n2)c(C(N)=O)n1` [Example 1-13, N-(3-carbamoyl-1-methyl-1H-pyrazol-4-yl)-2-(1H-pyrazol-4-yl)-1,3-thiazole-4-carboxamide]: the “LRRK2 pIC50” value is 8.17.
Regarding `COc1nn(C)cc1NC(=O)c1csc(-c2cn[nH]c2)n1` [Example 1-14, N-(3-methoxy-1-methyl-1H-pyrazol-4-yl)-2-(1H-pyrazol-4-yl)-1,3-thiazole-4-carboxamide], the “LRRK2 pIC50” value is recorded as 7.13.
As to `Cn1cc(NC(=O)c2csc(-c3cn[nH]c3)n2)c(C(F)F)n1` [Example 1-15, N-[3-(difluoromethyl)-1-methyl-1H-pyrazol-4-yl]-2-(1H-pyrazol-4-yl)-1,3-thiazole-4-carboxamide], the “LRRK2 pIC50” value was 7.79.
On to `CC(C)Oc1nn(C)cc1NC(=O)c1csc(-c2cn[nH]c2)n1` [Example 1-16, N-[1-methyl-3-(1-methylethoxy)-1H-pyrazol-4-yl]-2-(1H-pyrazol-4-yl)-1,3-thiazole-4-carboxamide], for which the “LRRK2 pIC50” value is on record as 7.43.
As for `CC(C)(C)n1cc(NC(=O)c2csc(-c3cn[nH]c3)n2)cn1` [Example 1-17, N-(1-tert-butyl-1H-pyrazol-4-yl)-2-(1H-pyrazol-4-yl)-1,3-thiazole-4-carboxamide], the “LRRK2 pIC50” value is given as 7.22.
As to `O=C(Nc1cnn(C2CC2)c1)c1coc(-c2cn[nH]c2)n1` [Example 1-18, N-(1-cyclopropyl-1H-pyrazol-4-yl)-2-(1H-pyrazol-4-yl)-1,3-oxazole-4-carboxamide], the “LRRK2 pIC50” value came to 6.75.
On to `COC(=O)c1nn(C)cc1NC(=O)c1csc(-c2cn[nH]c2)n1` [Example 1-19, methyl 1-methyl-4-({[2-(1H-pyrazol-4-yl)-1,3-thiazol-4-yl]carbonyl}amino)-1H-pyrazole-3-carboxylate], for which the “LRRK2 pIC50” value is 8.66.
To `CC(C)n1cc(NC(=O)c2csc(-c3cn[nH]c3)n2)cn1` [Example 1-20, N-[1-(1-methylethyl)-1H-pyrazol-4-yl]-2-(1H-pyrazol-4-yl)-1,3-thiazole-4-carboxamide] belongs 7.68.
Take `O=C(Nc1cnn(-c2ccncc2)c1)c1coc(-c2cn[nH]c2)n1` [Example 1-21, 2-(1H-pyrazol-4-yl)-N-(1-pyridin-4-yl-1H-pyrazol-4-yl)-1,3-oxazole-4-carboxamide]: the “LRRK2 pIC50” value came out at 7.18.
For `COc1nn(C2CCC2)cc1NC(=O)c1csc(-c2cn[nH]c2)n1` [Example 1-22, N-(1-cyclobutyl-3-methoxy-1H-pyrazol-4-yl)-2-(1H-pyrazol-4-yl)-1,3-thiazole-4-carboxamide], the “LRRK2 pIC50” value is given as 7.76.
Regarding `Cc1nn(C(C2CC2)C2CC2)cc1NC(=O)c1csc(-c2cn[nH]c2)n1` [Example 1-23, N-[1-(dicyclopropyl-methyl)-3-methyl-1H-pyrazol-4-yl]-2-(1H-pyrazol-4-yl)-1,3-thiazole-4-carboxamide], the “LRRK2 pIC50” value was 6.59.
In the case of `O=C(Nc1cnn(-c2ccccc2)c1)c1csc(-c2cn[nH]c2)n1` [Example 1-24, N-(1-phenyl-1H-pyrazol-4-yl)-2-(1H-pyrazol-4-yl)-1,3-thiazole-4-carboxamide], the “LRRK2 pIC50” value is recorded as 7.56.
To `O=C(Nc1cnn(C2CC2)c1)c1csc(-c2cn[nH]c2)n1` [Example 1-25, N-(1-cyclopropyl-1H-pyrazol-4-yl)-2-(1H-pyrazol-4-yl)-1,3-thiazole-4-carboxamide] belongs 7.65; to `Cn1cc(NC(=O)c2csc(-c3cn[nH]c3)n2)c(OCC(F)F)n1` [Example 1-26, N-[3-(2,2-difluoroethoxy)-1-methyl-1H-pyrazol-4-yl]-2-(1H-pyrazol-4-yl)-1,3-thiazole-4-carboxamide], 7.56.
On to `CSCC1(Cn2cc(NC(=O)c3csc(-c4cn[nH]c4)n3)cn2)CCC1` [Example 1-27, N-[1-({1-[(methylsulfanyl)methyl]cyclobu-tyl}methyl)-1H-pyrazol-4-yl]-2-(1H-pyrazol-4-yl)-1,3-thiazole-4-carboxamide], for which the “LRRK2 pIC50” value is reported as 7.77.
On to `COc1nn(Cc2nnc3n2CCCCC3)cc1NC(=O)c1csc(-c2cn[nH]c2)n1` [Example 1-28, N-[3-methoxy-1-(6,7,8,9-tetrahydro-5H-[1,2,4]triazolo[4,3-a]azepin-3-ylmethyl)-1H-pyrazol-4-yl]-2-(1H-pyrazol-4-yl)-1,3-thiazole-4-carboxamide], for which the “LRRK2 pIC50” value was 6.95.
Regarding `COCC1(Cn2cc(NC(=O)c3csc(-c4cn[nH]c4)n3)cn2)CCC1` [Example 1-29, N-(1-{[1-(methoxymethyl)cyclobutyl]methyl}-1H-pyrazol-4-yl)-2-(1H-pyrazol-4-yl)-1,3-thiazole-4-carboxamide], the “LRRK2 pIC50” value was 7.82.
Take `Cn1cc(NC(=O)c2csc(-c3cn[nH]c3)n2)c(Oc2ccccc2)n1` [Example 1-30, N-(1-methyl-3-phenoxy-1H-pyrazol-4-yl)-2-(1H-pyrazol-4-yl)-1,3-thiazole-4-carboxamide]: the “LRRK2 pIC50” value turned out to be 7.78.
For the compound `Cn1cc(-c2nn(C)cc2NC(=O)c2csc(-c3cn[nH]c3)n2)cn1` [Example 1-31, N-(1,1′-dimethyl-1H,1′H-3,4′-bipyrazol-4-yl)-2-(1H-pyrazol-4-yl)-1,3-thiazole-4-carboxamide], the “LRRK2 pIC50” value was determined as 7.95.
For `CC1(C)CC(Cn2cc(NC(=O)c3csc(-c4cn[nH]c4)n3)cn2)C1` [Example 1-32, N-{1-[(3,3-dimethylcyclobu-tyl)methyl]-1H-pyrazol-4-yl}-2-(1H-pyrazol-4-yl)-1,3-thiazole-4-carboxamide], the “LRRK2 pIC50” value was found to be 8.00.
Consider `O=C(Nc1cnn(C2CCC2)c1)c1coc(-c2cn[nH]c2)n1` [Example 1-33, N-(1-cyclobutyl-1H-pyrazol-4-yl)-2-(1H-pyrazol-4-yl)-1,3-oxazole-4-carboxamide], for which the “LRRK2 pIC50” value was found to be 7.13.
